{"source": "patent US7064114B2", "about": "“Gel-microemulsion formulations” (priority 1999, dated 2006)", "key": {"Solubility of WHI-07": {"test": "Solubility of WHI-07", "assay_type": "physicochemical", "settings": "for solubility at 2 h: thermodynamic from solid, n = 3", "method": "(§1) After the drug was completely dissolved in octanol, 5 ml of water was added to each octanol solution. The mixtures were handshaken vigorously for 10 min, and afterward let to stand overnight until a complete phase separation occurred.\nThe solubility of WHI-07 in Captex® 300 and polyethylene glycol 300 was carried out using UV-Vis spectrophotometer at 272 nm.\nCalibration curve: Two stock solutions of WHI-07 were prepared in ethanol at concentrations of 4.2 mg/ml and 3.85 mg/ml respectively. The plot of the calibration curve is shown in Curve 1.\nAppropriate amounts of WHI-07 and Captex® 300 or PEG300 were weighed and placed in glass containers. Each sample was stirred with a stir bar at ambient temperature for 2 hours. Each sample was then filtered through 0.45 μm filter, and diluted with ethanol for UV-Vis measurement."}, "[1]": {"test": "Octanol/water partition coefficient of WHI-07", "assay_type": "physicochemical", "method": "as §1\nSamples of water and octanol were taken from each mixture, and directly injected into the HPLC for analysis. The peak area ratios represent the partition coefficient."}, "human sperm": {"system": "human sperm", "test": "Computer-assisted spermicidal assay (CASA) on washed highly motile fraction of sperm", "assay_type": "cell-based", "settings": "3 h at 37° C.; for effect on human sperm motility: concentrations up to those used for GM-4, CASA", "method": "All donor specimens were obtained after informed consent and in compliance with the guidelines of the Parker Hughes Institute Institutional Review Board. […] Sigma Chemical Co., St. Louis, Mo.) in the presence and absence of serial 2-fold dilutions of test substance. […] After 3 h incubation at 37° C., the sperm head centroid-derived sperm motility parameters were determined using a Hamilton Thorne Research (Danvers, Mass.) Integrated Visual Optical System (IVOS), version 10 instrument, as previously described (D'Cruz O J, et al., Biol Reprod, 1998;58:1515-26.; D'Cruz O J, et al., Mol Hum Reprod, 1998;4:683-93.; D'Cruz O J, et al., Biol Reprod, 1999;60:435-44.; D'Cruz O J, et al. Biol Reprod, 1999;60:1419-28.). The attributes of sperm kinematic parameters evaluated included numbers of motile (MOT) and progressively (PRG) motile sperm; curvilinear velocity (VCL); average path velocity (VAP); straight-line velocity (VSL); beat-cross frequency (BCF); and the amplitude of lateral head displacement (ALH) and the derivatives, straightness (STR) and linearity (LIN). Data from each individual cell track were recorded and analyzed. For each aliquot sampled, >200 sperm were analyzed. The percentage motilities were compared with those of sham-treated control suspensions of motile sperm."}, "[2]": {"settings": "cited from earlier work"}}, "note": "Values joined by “and” are separate entries in the source; they are usually repeats but may differ in a detail not shown here. Equal entries are not always repeated.", "data": [{"compound": "COC(=O)C(C)NP(=O)(OC[C@H]1O[C@@H](N2C(=O)NC(=O)C(C)(Br)C2OC)CC1N=[N+]=[N-])Oc1ccc(Br)cc1", "note": "(mixture of isomers) [WHI-07, (5R,6R)-and (5S,6S)-5-bromo-6-methoxy-5,6-dihydro-AZT-5′-(para-bromophenylmethoxyalaninyl phosphate)]", "values": [{"measurement": "solubility in oil (medium chain triglyceride)", "setting": "Solubility of WHI-07; medium chain triglyceride", "result": 4.1, "unit": "%"}, {"measurement": "solubility at 2 h", "setting": "Solubility of WHI-07; oil or lipid, in Captex® 300, ambient temperature", "result": 40.6, "unit": "mg/mL"}, {"measurement": "solubility at 2 h", "setting": "Solubility of WHI-07; organic solvent or mixture, in PEG300, ambient temperature", "result": 132, "unit": "mg/mL"}, {"measurement": "solubility in polyethylene glycol 300", "setting": "Solubility of WHI-07; polyethylene glycol 300", "result": 13.1, "unit": "%"}, {"measurement": "solubility in water", "setting": "Solubility of WHI-07; water", "result": "< 0.003", "unit": "%"}, {"measurement": "logP", "setting": "[1]; octanol/water, average of four samples, read-out: Octanol/Water partition coefficient Log KD", "result": 2.05}, {"measurement": "Peak area ratio Octanol/water", "setting": "[1]; single samples 1-4, HPLC", "result": "113.9 and 111.3 and 115.8 and 109.2"}]}, {"compound": "CC(O)CO", "note": "(stereo not drawn) [propylene glycol, propane-1,2-diol]", "values": [{"measurement": "EC50 (concentration that decreased the proportion of motile sperm by 50%)", "setting": "human sperm", "result": "> 4.2", "unit": "%"}, {"measurement": "effect on human sperm motility", "setting": "human sperm", "result": "partially spermicidal at the highest concentration tested"}]}, {"compound": "O=C([O-])c1ccccc1.[Na+]", "note": "[sodium benzoate]", "values": [{"measurement": "effect on human sperm motility", "setting": "human sperm", "result": "little or no inhibitory effects"}]}, {"compound": "isononyl-phenyl-polyoxyethylene (9) ether [N-9]", "values": [{"measurement": "average 6-month pregnancy rate", "setting": "[2]; users of N-9, several large studies", "result": 26, "unit": "%"}, {"measurement": "effectiveness in preventing pregnancy", "setting": "[2]; users of N-9", "result": "approximately 75%"}]}]}
